# Biological target: recombinant human ASK1 kinase (Homo sapiens (Human), UniProt Q99683)
# Assay: TR-FRET ASK1 (Apoptosis Signal-Regulating Kinase 1) kinase assay
# Assay type: biochemical
# Details: TR-FRET/HTRF, 4 nM ASK1, 1 μM STK3 peptide substrate, 100 μM ATP, 3 hr; average of quadruplicate determination
# Description: I. TR-FRET ASK1 (Apoptosis Signal-Regulating Kinase 1) Kinase Assay
# To evaluate the inhibitory activity of compounds of the invention against ASK1 (Apoptosis Signal-regulating Kinase 1) kinase, its activity was examined using a TR-FRET ASK1 kinase assay which determined the amount of phosphate transferred to a peptide substrate from ATP.
# Dephosphorylated recombinant human ASK1 kinase was from Gilead Sciences. Small molecule kinase inhibitor staurosporine (Catalogue #S6942) and dithiothreitol (DTT, catalogue #43815-5G) were obtained from Sigma Chemicals (St. Louis, Mo.). ATP (catalogue #7724) was from Affymetrix (Santa Clara, Calif.) and test compounds were from Gilead Sciences. HTRF KinEASE™-STK S3 kit was obtained from Cisbio (Bedford, Mass.). All other reagents were of the highest grade commercially available.
# The assay measures the phosphorylation level of a biotinylated peptide substrate by the ASK1 kinase using HTRF detection. This is a competitive, time-resolved fluorescence resonance energy transfer (TR-FRET) immunoassay, based on HTRF® KinEASE™-STK manual from Cisbio. Test compound, 1 μM STK3 peptide substrate, 4 nM of ASK1 kinase were incubated with 10 mM MOP buffer, pH. 7.0 containing 10 mM Mg-acetate, 0.025% NP-40, 1 mM DTT, 0.05% BSA and 1.5% glycerol for 30 minutes then 100 μM ATP was added to start the kinase reaction and incubated for 3 hr. Peptide antibody labeled with 1×Eu^3+ Cryptate buffer containing 10 mM EDTA and 125 nM Streptavidin XL665 were added to stop the reaction and phosphorylated peptide substrate was detected using Envision 2103 Multilabeled reader from PerkinElmer. The fluorescence was measured at 615 nm (Cryptate) and 665 nm (XL665) and a ratio of 665 nm/615 nm was calculated for each well. The resulting TR-FRET level (a ratio of 665 nm/615 nm) was proportional to the phosphorylation level. Under these assay conditions, the degree of phosphorylation of peptide substrate was linear with time and concentration for the enzyme. The assay system yielded consistent results with regard to Km and specific activities for the enzyme. For inhibition experiments (IC50 values), activities were performed with constant concentrations of ATP, peptide and several fixed concentrations of inhibitors. Staurosporine, the nonselective kinase inhibitor, was used as the positive control. All enzyme activity data are reported as an average of quadruplicate determination.
# The IC50 values were calculated following equation: y=Range/{1+(x/IC50)^s}+Background where x and y represent the concentration of inhibitors and enzyme activity, respectively. Enzyme activity is expressed as the amount of Phosphate incorporated into substrate peptide from ATP. Range is the maximum y range (no inhibitor, DMSO control) and s is a slope factor.
# Sequence of recombinant human ASK1 kinase (Q99683 whole entry): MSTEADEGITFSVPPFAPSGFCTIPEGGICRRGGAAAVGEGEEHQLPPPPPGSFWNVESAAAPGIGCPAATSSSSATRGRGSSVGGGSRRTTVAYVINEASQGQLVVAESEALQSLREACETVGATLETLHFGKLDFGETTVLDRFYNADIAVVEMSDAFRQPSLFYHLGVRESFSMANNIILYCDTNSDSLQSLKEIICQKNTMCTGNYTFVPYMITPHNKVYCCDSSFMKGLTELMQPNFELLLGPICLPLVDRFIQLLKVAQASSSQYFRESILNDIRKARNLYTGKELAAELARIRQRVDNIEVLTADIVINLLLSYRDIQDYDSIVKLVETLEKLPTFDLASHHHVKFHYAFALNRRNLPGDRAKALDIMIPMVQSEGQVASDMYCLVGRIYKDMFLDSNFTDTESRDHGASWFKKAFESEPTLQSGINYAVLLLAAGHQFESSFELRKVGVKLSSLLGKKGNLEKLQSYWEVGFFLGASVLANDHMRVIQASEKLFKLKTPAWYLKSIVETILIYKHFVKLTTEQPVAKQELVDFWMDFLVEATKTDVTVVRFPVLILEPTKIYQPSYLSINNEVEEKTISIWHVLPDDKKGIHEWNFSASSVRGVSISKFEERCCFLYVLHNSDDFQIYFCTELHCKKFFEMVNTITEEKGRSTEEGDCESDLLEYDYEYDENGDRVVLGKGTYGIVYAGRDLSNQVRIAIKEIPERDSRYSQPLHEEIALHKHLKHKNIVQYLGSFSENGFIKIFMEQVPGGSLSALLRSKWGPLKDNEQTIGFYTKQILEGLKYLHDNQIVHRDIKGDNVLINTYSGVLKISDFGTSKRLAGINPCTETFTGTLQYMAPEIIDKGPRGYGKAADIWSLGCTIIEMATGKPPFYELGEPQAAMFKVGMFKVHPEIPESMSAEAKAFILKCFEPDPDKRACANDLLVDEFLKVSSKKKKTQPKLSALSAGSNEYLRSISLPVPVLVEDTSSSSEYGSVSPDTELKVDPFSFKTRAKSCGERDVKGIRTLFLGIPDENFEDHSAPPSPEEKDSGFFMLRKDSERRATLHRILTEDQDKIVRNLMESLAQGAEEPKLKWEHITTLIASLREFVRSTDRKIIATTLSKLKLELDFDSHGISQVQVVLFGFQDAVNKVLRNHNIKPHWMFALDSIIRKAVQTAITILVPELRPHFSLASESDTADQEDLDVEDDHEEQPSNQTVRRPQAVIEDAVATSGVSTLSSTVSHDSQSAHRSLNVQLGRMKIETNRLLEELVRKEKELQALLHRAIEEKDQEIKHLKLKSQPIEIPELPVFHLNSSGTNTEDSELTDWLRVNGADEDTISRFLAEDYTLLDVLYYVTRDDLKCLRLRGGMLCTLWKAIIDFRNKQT
row,Compound,IC50
1,"COC1(C)CN(c2cnc(C(=O)Nc3csc(-c4nncn4[C@@H](C)C(F)(F)F)n3)cc2-n2cnc(C3CC3)c2)C1 [Compound 25, (S)-4-(4-cyclopropyl-1H-imidazol-1-yl)-5-(3-methoxy-3-methylazetidin-1-yl)-N-(2-(4-(1,1,1-trifluoropropan-2-yl)-4H-1,2,4-triazol-3-yl)thiazol-4-yl)picolinamide]",2 nM
2,"C[C@H](n1cnnc1-c1nc(NC(=O)c2cc(-n3cnc(C4CC4)c3)c(N3CC(C(F)F)C3)cn2)cs1)C(F)(F)F [Compound 26, (S)-4-(4-cyclopropyl-1H-imidazol-1-yl)-5-(3-(difluoromethyl)azetidin-1-yl)-N-(2-(4-(1,1,1-trifluoropropan-2-yl)-4H-1,2,4-triazol-3-yl)thiazol-4-yl)picolinamide]",1.7 nM
3,"C[C@H](n1cnnc1-c1nc(NC(=O)c2cc(-n3cnc(C4CC4)c3)c(N3CCC(F)(F)C3)cn2)cs1)C(F)(F)F [Compound 27, (S)-4-(4-cyclopropyl-1H-imidazol-1-yl)-5-(3,3-difluoropyrrolidin-1-yl)-N-(2-(4-(1,1,1-trifluoropropan-2-yl)-4H-1,2,4-triazol-3-yl)thiazol-4-yl)picolinamide]",2.1 nM
4,"CNC(=O)C1CCN(c2cnc(C(=O)Nc3csc(-c4nncn4[C@@H](C)C(F)(F)F)n3)cc2-n2cnc(C3CC3)c2)CC1 [Compound 31, (S)-4-(4-cyclopropyl-1H-imidazol-1-yl)-5-(4-(methylcarbamoyl)piperidin-1-yl)-N-(2-(4-(1,1,1-trifluoropropan-2-yl)-4H-1,2,4-triazol-3-yl)thiazol-4-yl)picolinamide]",2.3 nM
5,"C[C@H](n1cnnc1-c1nc(NC(=O)c2cc(-n3cnc(C4CC4)c3)c(N3CCC(C(F)(F)F)CC3)cn2)cs1)C(F)(F)F [Compound 32, (S)-4-(4-cyclopropyl-1H-imidazol-1-yl)-5-(4-(trifluoromethyl)piperidin-1-yl)-N-(2-(4-(1,1,1-trifluoropropan-2-yl)-4H-1,2,4-triazol-3-yl)thiazol-4-yl)picolinamide]",1.5 nM
6,"COC1(C)CCN(c2cnc(C(=O)Nc3csc(-c4nncn4[C@@H](C)C(F)(F)F)n3)cc2-n2cnc(C3CC3)c2)CC1 [Compound 35, (S)-4-(4-cyclopropyl-1H-imidazol-1-yl)-5-(4-methoxy-4-methylpiperidin-1-yl)-N-(2-(4-(1,1,1-trifluoropropan-2-yl)-4H-1,2,4-triazol-3-yl)thiazol-4-yl)picolinamide]",2.2 nM
7,"C[C@H](n1cnnc1-c1nc(NC(=O)c2cc(-n3cnc(C4CC4)c3)c(N3CCCOCC3)cn2)cs1)C(F)(F)F [Compound 36, (S)-4-(4-cyclopropyl-1H-imidazol-1-yl)-5-(1,4-oxazepan-4-yl)-N-(2-(4-(1,1,1-trifluoropropan-2-yl)-4H-1,2,4-triazol-3-yl)thiazol-4-yl)picolinamide]",1.9 nM

# Further lines, results first:
row,IC50,Compound
1,1.7 nM,"C[C@H](n1cnnc1-c1nc(NC(=O)c2cc(-n3cnc(C4CC4)c3)c(N3CCC(C#N)CC3)cn2)cs1)C(F)(F)F [Compound 29, (S)-5-(4-cyanopiperidin-1-yl)-4-(4-cyclopropyl-1H-imidazol-1-yl)-N-(2-(4-(1,1,1-trifluoropropan-2-yl)-4H-1,2,4-triazol-3-yl)thiazol-4-yl)picolinamide]"
2,2.3 nM,"COC1CCN(c2cnc(C(=O)Nc3csc(-c4nncn4[C@@H](C)C(F)(F)F)n3)cc2-n2cnc(C3CC3)c2)CC1 [Compound 30, (S)-4-(4-cyclopropyl-1H-imidazol-1-yl)-5-(4-methoxypiperidin-1-yl)-N-(2-(4-(1,1,1-trifluoropropan-2-yl)-4H-1,2,4-triazol-3-yl)thiazol-4-yl)picolinamide]"
3,1.7 nM,"C[C@H](n1cnnc1-c1nc(NC(=O)c2cc(-n3cnc(C4CC4)c3)c(N3CCC(F)CC3)cn2)cs1)C(F)(F)F [Compound 34, (S)-4-(4-cyclopropyl-1H-imidazol-1-yl)-5-(4-fluoropiperidin-1-yl)-N-(2-(4-(1,1,1-trifluoropropan-2-yl)-4H-1,2,4-triazol-3-yl)thiazol-4-yl)picolinamide]"

# — patent publication US9169243B2, “Apoptosis signal-regulating kinase inhibitors” (Gilead Sciences, Inc., priority 2013, dated 2015)
